Active and inactive are the calls of the source. The rule behind the calls is not given here.
Legend:
Candida albicans [1] = experiment: Additive antifungal activity against Candida albicans ATCC MYA-2876 assessed as fractional inhibitory concentration index measured for 72 hrs in presence of posaconazole; format: functional
Candida albicans [2] = experiment: Synergistic antifungal activity against Candida albicans ATCC 64124 assessed as compound MIC measured after 48 hrs in presence of ketoconazole by checkboard based microplate reader analysis; format: functional
Aspergillus terreus = experiment: Antifungal activity against Aspergillus terreus ATCC MYA-3633 measured after 48 hrs by broth microdilution analysis; format: functional
Candida albicans [3] = experiment: Additive antifungal activity against Candida albicans ATCC MYA-2876 assessed as fractional inhibitory concentration index measured for 72 hrs in presence of voriconazole; format: functional
Candida albicans [4] = experiment: Additive antifungal activity against Candida albicans ATCC MYA-1237 assessed as fractional inhibitory concentration index measured for 72 hrs in presence of voriconazole; format: functional
HEK293 [5] = experiment: Cytotoxicity against human HEK293 cells assessed as cell survival at 64 microg/ml by XTT assay; format: toxicity, cell-based; conditions: dose 64 µg/ml
Candida albicans [6] = experiment: Partial synergistic antifungal activity against Candida albicans ATCC 64124 assessed as fractional inhibitory concentration index measured for 72 hrs in presence of ketoconazole; format: functional
Candida albicans [7] = experiment: Additive antifungal activity against Candida albicans MYA-1003 assessed as fractional inhibitory concentration index measured for 72 hrs in presence of voriconazole
Candida albicans [8] = experiment: Partial synergistic antifungal activity against Candida albicans ATCC 10231 assessed as fractional inhibitory concentration index measured for 72 hrs in presence of voriconazole; format: functional
[9] = Cytotoxicity against human BEAS-2B cells assessed as cell survival by XTT assay; format: toxicity, cell-based; conditions: read-out: Activity
Candida albicans [10] = experiment: Synergistic antifungal activity against Candida albicans ATCC 64124 assessed as compound MIC measured after 48 hrs in presence of fluconazole by checkboard based microplate reader analysis; format: functional
Candida albicans [11] = experiment: Additive antifungal activity against Candida albicans ATCC 10231 assessed as fractional inhibitory concentration index measured for 72 hrs in presence of fluconazole; format: functional
Candida albicans [12] = experiment: Partial synergistic antifungal activity against Candida albicans ATCC MYA-1003 assessed as fractional inhibitory concentration index measured for 72 hrs in presence of posaconazole; format: functional
Nakaseomyces glabratus [13] = experiment: Additive antifungal activity against Candida glabrata ATCC 2001 assessed as fractional inhibitory concentration index measured for 72 hrs in presence of posaconazole; format: functional
[14] = Cytotoxicity against mouse J774.A1 cells assessed as cell survival at 16 microg/ml by XTT assay; format: toxicity, cell-based; conditions: at 16 µg/mL, read-out: Activity
J774.A1 [15] = experiment: Cytotoxicity against mouse J774.A1 cells assessed as cell survival at 8 microg/ml by XTT assay; format: toxicity, cell-based; conditions: j774.a1, dose 8 µg/ml
HEK293 [16] = experiment: Cytotoxicity against HEK293 cells assessed as cell survival at 8 microg/ml by XTT assay; format: toxicity, cell-based; conditions: human, dose 8 µg/ml
Candida albicans [17] = experiment: Synergistic antifungal activity against Candida albicans ATCC 64124 assessed as fractional inhibitory concentration index measured for 72 hrs in presence of voriconazole; format: functional
Candida albicans [18] = experiment: Synergistic antifungal activity against Candida albicans ATCC 64124 assessed as compound MIC measured after 48 hrs in presence of posaconazole by checkboard based microplate reader analysis; format: functional
[19] = Cytotoxicity against human HEK293 cells assessed as cell survival at 1 to 16 microg/ml in presence of posaconazole by XTT assay; format: toxicity, cell-based; conditions: at 1 to 16 µg/mL, dose 1-16 µg/ml
Candida albicans [20] = experiment: Synergistic antifungal activity against Candida albicans ATCC 10231 assessed as compound MIC measured after 48 hrs in presence of ketoconazole by checkboard based microplate reader analysis; format: functional
Candida albicans [21] = experiment: Synergistic antifungal activity against Candida albicans ATCC 90819 assessed as fractional inhibitory concentration index measured for 72 hrs in presence of voriconazole; format: functional
[22] = Cytotoxicity against mouse J774.A1 cells assessed as cell survival at 32 microg/ml by XTT assay; format: toxicity, cell-based; conditions: at 32 µg/mL, read-out: Activity
Candida albicans [23] = experiment: Antifungal activity against Candida albicans ATCC MYA-2876 measured after 48 hrs by broth microdilution analysis; format: functional
Candida albicans [24] = experiment: Synergistic antifungal activity against Candida albicans ATCC 64124 assessed as compound MIC measured after 48 hrs in presence of voriconazole by checkboard based microplate reader analysis; format: functional
Candida albicans [25] = experiment: Partial synergistic antifungal activity against Candida albicans ATCC MYA-2310 assessed as fractional inhibitory concentration index measured for 72 hrs in presence of voriconazole; format: functional
Candida albicans [26] = experiment: Antifungal activity against Candida albicans ATCC 64124 measured after 48 hrs by broth microdilution analysis; format: functional
Nakaseomyces glabratus [27] = experiment: Additive antifungal activity against Candida glabrata ATCC 2001 assessed as fractional inhibitory concentration index measured for 72 hrs in presence of voriconazole; format: functional
Candida albicans [28] = experiment: Fungicidal activity against Candida albicans ATCC 64124 assessed as reduction in colony forming units at 8 times MIC incubated for 24 hrs by time kill assay; format: functional, organism-based
Candida albicans [29] = experiment: Additive antifungal activity against Candida albicans ATCC MYA-1237 assessed as fractional inhibitory concentration index measured for 72 hrs in presence of posaconazole; format: functional
Candida albicans [30] = experiment: Partial synergistic antifungal activity against Candida albicans ATCC 10231 assessed as fractional inhibitory concentration index measured for 72 hrs in presence of posaconazole; format: functional
Candida albicans [31] = experiment: Partial synergistic antifungal activity against Candida albicans ATCC 10231 assessed as fractional inhibitory concentration index measured for 72 hrs in presence of ketoconazole; format: functional
Nakaseomyces glabratus [32] = experiment: Synergistic antifungal activity against Candida glabrata ATCC 2001 assessed as fractional inhibitory concentration index measured for 72 hrs in presence of voriconazole; format: functional
Candida albicans [33] = experiment: Synergistic antifungal activity against Candida albicans ATCC 90819 assessed as fractional inhibitory concentration index measured for 72 hrs in presence of posaconazole; format: functional
Candida albicans [34] = experiment: Antifungal activity against Candida albicans ATCC MYA-1237 measured after 48 hrs by broth microdilution analysis; format: functional
Candida albicans [35] = experiment: Partial synergistic antifungal activity against Candida albicans ATCC 64124 assessed as fractional inhibitory concentration index measured for 72 hrs in presence of itraconazole; format: functional
Candida albicans [36] = experiment: Antifungal activity against Candida albicans ATCC 10231 measured after 48 hrs by broth microdilution analysis; format: functional
Candida albicans [37] = experiment: Synergistic antifungal activity against Candida albicans ATCC 10231 assessed as compound MIC measured after 48 hrs in presence of posaconazole by checkboard based microplate reader analysis; format: functional
Nakaseomyces glabratus [38] = experiment: Synergistic antifungal activity against Candida glabrata ATCC 2001 assessed as fractional inhibitory concentration index measured for 72 hrs in presence of posaconazole; format: functional
Candida albicans [39] = experiment: Antifungal activity against Candida albicans ATCC MYA-1003 measured after 48 hrs by broth microdilution analysis; format: functional
J774.A1 [40] = experiment: Cytotoxicity against mouse J774.A1 cells assessed as cell survival up to 4 microg/ml by XTT assay; format: toxicity, cell-based; conditions: dose < 4 µg/ml
BEAS-2B = experiment: Cytotoxicity against human BEAS-2B cells assessed as cell survival at 64 microg/ml by XTT assay; format: toxicity, cell-based; conditions: dose 64 µg/ml
Candida albicans [41] = experiment: Fungicidal activity against Candida albicans ATCC 64124 assessed as reduction in colony forming units at 2 to 8 times MIC incubated after 6 hrs by time kill assay; format: functional, organism-based

MIC (Candida albicans [2]): 64 µg/mL | MIC (Aspergillus terreus): > 128 µg/mL | MIC (Candida albicans [10]): 64 µg/mL | MIC (Candida albicans [18]): 4 µg/mL | MIC (Candida albicans [20]): 32 µg/mL | MIC (Candida albicans [23]): > 128 µg/mL | MIC (Candida albicans [24]): 8 µg/mL | MIC (Candida albicans [26]): > 128 µg/mL | MIC (Candida albicans [34]): > 128 µg/mL | MIC (Candida albicans [36]): > 128 µg/mL | MIC (Candida albicans [37]): 64 µg/mL | MIC (Candida albicans [39]): > 128 µg/mL
SMILES: O=C(CCCN1CCC(O)(c2ccc(Br)cc2)CC1)c1ccc(F)cc1 [BROMPERIDOL]
fractional inhibitory concentration index (FICI) (Candida albicans [1]): 2 | fractional inhibitory concentration index (FICI) (Candida albicans [3]): 2 | fractional inhibitory concentration index (FICI) (Candida albicans [4]): 2 | Activity (HEK293 [5]): Non-Toxic | fractional inhibitory concentration index (FICI) (Candida albicans [6]): 0.75 | fractional inhibitory concentration index (FICI) (Candida albicans [7]): 0.52 | fractional inhibitory concentration index (FICI) (Candida albicans [8]): 0.75 | viability [9]: > 100% | fractional inhibitory concentration index (FICI) (Candida albicans [11]): 1.5 | fractional inhibitory concentration index (FICI) (Candida albicans [12]): 0.75 | fractional inhibitory concentration index (FICI) (Nakaseomyces glabratus [13]): 0.51 | viability at 16 microg/ml [14]: 72% | Activity (J774.A1 [15]): Non-Toxic | Activity (HEK293 [16]): Non-Toxic | fractional inhibitory concentration index (FICI) (Candida albicans [17]): 0.19 | viability [19]: 80% | fractional inhibitory concentration index (FICI) (Candida albicans [21]): 0.5 | viability at 32 microg/ml [22]: 50% | fractional inhibitory concentration index (FICI) (Candida albicans [25]): 0.53 | fractional inhibitory concentration index (FICI) (Nakaseomyces glabratus [27]): 0.51 | Activity (Candida albicans [28]): Active | fractional inhibitory concentration index (FICI) (Candida albicans [29]): 2 | fractional inhibitory concentration index (FICI) (Candida albicans [30]): 0.75 | fractional inhibitory concentration index (FICI) (Candida albicans [31]): 0.75 | fractional inhibitory concentration index (FICI) (Nakaseomyces glabratus [32]): 0.51 | fractional inhibitory concentration index (FICI) (Candida albicans [33]): 0.5 | fractional inhibitory concentration index (FICI) (Candida albicans [35]): 0.56 | fractional inhibitory concentration index (FICI) (Nakaseomyces glabratus [38]): 0.5 | Activity (J774.A1 [40]): Non-Toxic | Activity (BEAS-2B): Non-Toxic | Activity (Candida albicans [41]): Active

— ChEMBL document CHEMBL5252541, “Repurposing antipsychotic drugs into antifungal agents: Synergistic combinations of azoles and bromperidol derivatives in the treatment of various fungal infections” (Eur J Med Chem, 2017)
